In patent US5968910A, “Compositions containing two or three inhibitors of different HIV reverse transcriptases” (priority 1994, dated 1999):
In brackets after ≈: the same amount, converted by molar mass. Read-outs that look alike come from different tables or passages of the source.

Experiments:
HIV-1 RT (WT) = HIV-1 RT (WT) (Human immunodeficiency virus type 1 group M subtype B, UniProt P03366); test: biochemical; details: substrate [2,8-3H]dGTP 2.95 μM, template poly(rC)oligo(dG); read-out: IC50, anti-HIV-1 RT (WT) activity (converted)
Procedure: The reaction mixture (50 μl) contained 50 mM Tris.HCl, pH 7.8, 5 mM dithiothreitol, […] glutathione, 500 μM EDTA, 150 mM KCl, 5 mM MgCl2, 1.25 μg of bovine serum albumin, a fixed concentration of the labeled substrate [2,8-^3 H]dGTP (2.95 μM, 2 μCi), a fixed concentration of the template/primer poly(C).oligo(dG) (0.1 mM), 0.06% Triton X-100, 5 μl of inhibitor solution [containing various concentrations (5-fold dilutions) of the test compounds], and 5 μl of the RT preparation. The reaction mixtures were incubated at 37° C. for 30 min, at which time 100 μl of calf thymus DNA (150 μg/ml), 2 ml of Na4 P2 07 (0.1 M in 1M HCl), and 2 ml of trichloroacetic acid (10%, v/v) were added. The solutions were kept on ice for 30 min, after which the acid-insoluble material was washed and analyzed for radioactivity.
Compounds I, III, IV and V were evaluated for their inhibitory effect on recombinant HIV-1 RT.

HIV-1(IIIB) = test: Knock-out concentrations: breakthrough of HIV-1(IIIB)-induced cytopathicity in CEM cell cultures; type: cell-based; details: Human immunodeficiency virus 1, IIIB, CCRF-CEM, read-out: HIV-1-induced cytopathicity in cell culture; for activity at 0.1 µg/mL: 0.1 μg/ml; for activity at 0.5 µg/mL: 0.5 μg/ml; for activity at 2.5 µg/mL: 2.5 μg/ml
Procedure: The culture medium consisted of RPMI 1640 containing 10% fetal bovine serum, 2 mM L-glutamine, and 0.075% NaHCO3. The multiplicity of the initial infection was ~1000 times the CCID50 (50% cell culture infective dose). Passages were performed every 3 to 4 days by adding 0.5 to 1.0 ml of the infected culture supernatant to 5 ml of a suspension containing 4×10^5 uninfected CEM cells per ml. Syncytium formation was used as a parameter of virus breakthrough in the cell cultures. In the drug combination experiments, the compounds were combined at the same initial concentrations as used for the two lowest concentrations in the single-drug experiments.
The drug concentrations were kept constant throughout the whole time period of the experiment (10 subcultivations or 35 days). Then the drugs were removed from the cell cultures, and the cells were further subcultured for at least 5 additional passages.

[1] = tested on: HIV-1/TSAO-m^3 T (138-Lys); test: Sensitivity of mutant HIV-1 strain in CEM cell cultures; type: cell-based; details: Human immunodeficiency virus 1, CCRF-CEM; CEM cells, Table 1; read-out: 50% Effective Concentration
Method in brief: (§1)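 CEM cells at 250,000 cells/ml were infected with HIV-1 at 100 CCID50 per ml, then mixed with serial dilutions of test compound. After 4 days at 37° C., cultures were scored for syncytium formation.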

[2] = tested on: HIV-1/TIBO R82913 (103-Asn); test: as above; type: cell-based; details: Human immunodeficiency virus 1, CCRF-CEM; CEM cells, Table 1; read-out: 50% Effective Concentration
Method in brief: as §1

HIV-1/Pyr (181-Cys) = test: as above; type: cell-based; details: Human immunodeficiency virus 1, CCRF-CEM; CEM cells, Table 1; read-out: 50% Effective Concentration
Method in brief: as §1

[3] = tested on: HIV-1/TIBO R82150 (100-Ile); test: as above; type: cell-based; details: Human immunodeficiency virus 1, CCRF-CEM; CEM cells, Table 1; read-out: 50% Effective Concentration
Method in brief: as §1

HIV-1/Nev (106-Ala) = test: as above; type: cell-based; details: Human immunodeficiency virus 1, CCRF-CEM; CEM cells, Table 1; read-out: 50% Effective Concentration
Method in brief: as §1

HIV-1(IIIB) (WT) = test: microbe, parasite or virus in culture; type: cell-based; details: Human immunodeficiency virus 1, IIIB, CCRF-CEM; CEM cells, Table 1; read-out: 50% Effective Concentration
Method in brief: as §1

[4] = 936 h, day 39 post infection, compound absent from day 35
[5] = 1008 h, day 42 post infection, compound absent from day 35
[6] = 1104 h, day 46 post infection, compound absent from day 35
[7] = 1176 h, day 49 post infection, compound absent from day 35
[8] = 1272 h, day 53 post infection, compound absent from day 35

For CC(C)Nc1cccnc1N1CCN(C(=O)c2cc3ccccc3[nH]2)CC1 [BHAP U88204, reference compound], the IC50 (HIV-1 RT (WT)) was 1210 nM, the activity at 0.1 µg/mL (HIV-1(IIIB); 96 h, day 4 post infection) was 0% and the activity at 0.5 µg/mL (HIV-1(IIIB); 96 h, day 4 post infection) was 0%. The activity at 2.5 µg/mL (HIV-1(IIIB); 96 h, day 4 post infection) was 0%, the activity at 0.1 µg/mL (HIV-1(IIIB); 192 h, day 8 post infection) was 12.5% and the activity at 0.5 µg/mL (HIV-1(IIIB); 192 h, day 8 post infection) was 0%. For the same compound, the activity at 2.5 µg/mL (HIV-1(IIIB); 192 h, day 8 post infection) was 0%, the activity at 0.1 µg/mL (HIV-1(IIIB); 264 h, day 11 post infection) was 50% and the activity at 0.5 µg/mL (HIV-1(IIIB); 264 h, day 11 post infection) was 6.25%. The activity at 2.5 µg/mL (HIV-1(IIIB); 264 h, day 11 post infection) was 0%, the activity at 0.1 µg/mL (HIV-1(IIIB); 336 h, day 14 post infection) was 100% and the activity at 0.5 µg/mL (HIV-1(IIIB); 336 h, day 14 post infection) was 6.25%. It also gave an activity at 2.5 µg/mL (HIV-1(IIIB); 336 h, day 14 post infection) of 0%, an activity at 0.1 µg/mL (HIV-1(IIIB); 408 h, day 17 post infection) of 100% and an activity at 0.5 µg/mL (HIV-1(IIIB); 408 h, day 17 post infection) of 25%. The activity at 2.5 µg/mL (HIV-1(IIIB); 408 h, day 17 post infection) was 0%, the activity at 0.1 µg/mL (HIV-1(IIIB); 504 h, day 21 post infection) was 100% and the activity at 0.5 µg/mL (HIV-1(IIIB); 504 h, day 21 post infection) was 75%. For the same compound, the activity at 2.5 µg/mL (HIV-1(IIIB); 504 h, day 21 post infection) was 0%, the activity at 0.1 µg/mL (HIV-1(IIIB); 600 h, day 25 post infection) was 100% and the activity at 0.5 µg/mL (HIV-1(IIIB); 600 h, day 25 post infection) was 87.5%. The activity at 2.5 µg/mL (HIV-1(IIIB); 600 h, day 25 post infection) was 0%, the activity at 0.1 µg/mL (HIV-1(IIIB); 672 h, day 28 post infection) was 100% and the activity at 0.5 µg/mL (HIV-1(IIIB); 672 h, day 28 post infection) was 100%. For the same compound, the activity at 2.5 µg/mL (HIV-1(IIIB); 672 h, day 28 post infection) was 0%, the activity at 0.1 µg/mL (HIV-1(IIIB); 768 h, day 32 post infection) was 100% and the activity at 0.5 µg/mL (HIV-1(IIIB); 768 h, day 32 post infection) was 100%. The activity at 2.5 µg/mL (HIV-1(IIIB); 768 h, day 32 post infection) was 0%, the activity at 0.1 µg/mL (HIV-1(IIIB); 840 h, day 35 post infection) was 100% and the activity at 0.5 µg/mL (HIV-1(IIIB); 840 h, day 35 post infection) was 100%. The activity at 2.5 µg/mL (HIV-1(IIIB); 840 h, day 35 post infection) was 0%, the activity at 0.1 µg/mL (HIV-1(IIIB); [4]) was 100% and the activity at 0.5 µg/mL (HIV-1(IIIB); [4]) was 100%. The activity at 2.5 µg/mL (HIV-1(IIIB); [4]) was 0%, the activity at 0.1 µg/mL (HIV-1(IIIB); [5]) was 100% and the activity at 0.5 µg/mL (HIV-1(IIIB); [5]) was 100%. The activity at 2.5 µg/mL (HIV-1(IIIB); [5]) was 0%, the activity at 0.1 µg/mL (HIV-1(IIIB); [6]) was 100% and the activity at 0.5 µg/mL (HIV-1(IIIB); [6]) was 100%. It also gave an activity at 2.5 µg/mL (HIV-1(IIIB); [6]) of 0%, an activity at 0.1 µg/mL (HIV-1(IIIB); [7]) of 100% and an activity at 0.5 µg/mL (HIV-1(IIIB); [7]) of 100%. For the same compound, the activity at 2.5 µg/mL (HIV-1(IIIB); [7]) was 0%, the activity at 0.1 µg/mL (HIV-1(IIIB); [8]) was 100% and the activity at 0.5 µg/mL (HIV-1(IIIB); [8]) was 100%. For the same compound, the activity at 2.5 µg/mL (HIV-1(IIIB); [8]) was 0%, the EC50 [1] was 0.07 µg/mL (≈ 0.193 µM) and the EC50 [2] was 1.7 µg/mL (≈ 4.68 µM). For the same compound, the EC50 (HIV-1/Pyr (181-Cys)) was 0.4 µg/mL (≈ 1.1 µM), the EC50 [3] was 0.75 µg/mL (≈ 2.06 µM) and the EC50 (HIV-1/Nev (106-Ala)) was 0.4 µg/mL (≈ 1.1 µM). For the same compound, the EC50 (HIV-1(IIIB) (WT)) was 0.04 µg/mL (≈ 0.11 µM).
